From patent US20220288075A1, “METHOD AND COMPOSITION FOR TREATING PAIN” (ACADEMIA SINICA, priority 2019, published 2022)

Experiments:
RISS mice = assay: RISS (repeated and intermittent sound stress) model, sensory testing (von Frey, muscle withdrawal threshold, Hargreaves); type: in vivo; settings: darapladib 10 mg/kg i.p. once daily throughout the RISS procedure, vs vehicle; FIG. 3N
Description: Sound stressors were applied as described^14, 43 with modification. Mice were placed (3 per cage) in a 20×30×15 cm bedding cage, which was kept 25 cm below a speaker, inside a 40×50×35 cm sound-insulated box. A speaker emitted pure tones at 5 frequencies (5, 11, 13, 15 and 19 kHz) with random amplitudes varied over time for each frequency (0, 20, 60, 90, and 100 dB sound). Each tone stimulus lasted for 5 or 10 sec in random order, and mice were stimulated continuously without interval. The sound stressors continued for 30 min as a set. In the original SS (sound stress) protocol, a set of 30-min stimuli was given once a day on days 1, 3, and 4 (FIG. 1A)^14. The RISS model intensified the stress protocol by increasing the stimulus frequency: a set of sound stimulus was repeated every 3 hours for 6 times overnight (from 16:00 to 10:00), followed by resting silence for 6 hours (from 10:00 to 16:00). The procedure was repeated on days 1, 3, and 4 as for the SS protocol. The control groups were placed in similar chambers for 4 days without stress exposure. Both groups of mice had access to food and water freely during the stress period. After the stimulus procedure, mice were returned to their original home cages in the animal care facility. In both the SS and RISS protocols, the day after completing the stress stimuli is called P0; the post-stress day 1, P1; and so on. In the experimental design of the […] single-day stimuli of intermittent SS (SISS), the day after SISS is called P′0; the post-stress day 1, P′1; and so on.
Animals were placed on an elevated mesh platform, and a 0.2-mN von Frey filament was applied to the plantar surface of both hind paws. A positive response was defined as lifting, shaking, guarding, or licking paws when the stimulus was applied. For each paw, the filament was applied 5 times at 30-sec intervals.
Mice were placed individually in Acrylic cubicles mounted on a glass surface maintained at 30° C. The test was performed after acclimatization. The thermal stimulus of the radiant heat was then applied to the plantar surface of each hind paw. Each mouse was tested in three sequential trials with an interval of 2-3 min. The assay cutoff was set at 30 sec to prevent tissue damage. Paw withdrawal latencies were calculated as the mean of three measures.
Muscle withdrawal thresholds were evaluated as described^46. […]
Analgesic drugs: Pregabalin (0.3, 1, 3 or 10 mg/kg bodyweight, i.p.; Toronto Research Chemicals), morphine (0.3, 1, 3 or 10 mg/kg bodyweight, i.p.), diclofenac (1, 3 or 10 mg/kg bodyweight, i.p.; Sigma-Aldrich) or vehicle (0.9% saline) was administered, and the effect of each drug was evaluated by testing 6 mice. […]

LPC16:0 = assay: Serum LPC16:0 level in RISS mice at P0 by mass spectrometry; type: in vivo; settings: darapladib 10 mg/kg i.p. once daily, P0, triple quadrupole MS, vs vehicle; FIG. 3N
Method: Antioxidants: Systemic administration of NAC (200 mg/kg bodyweight, i.p.; Sigma-Aldrich) with Tempol (100 mg/kg bodyweight, i.p.; Sigma-Aldrich) or vehicle (phosphate buffered saline; PBS) was given 30 min before and after each RISS procedure at days 1, 3 and 4 (FIG. 3M)^48-50. A total of 6 doses of drug were given during the RISS protocol. Sensory testing was performed 1 hour after the last drug injection at P0 and at P4 and P7. PAF-AH inhibitors. Darapladib (Cayman, Ann Arbor, Mich.) was solubilized in DMSO: PBS containing 1% methyl-β-cyclodextrin (1:99) and given once daily by i.p. injection at 10 mg/kg body weight. Mice were randomly assigned to receive vehicle or darapladib for 5 consecutive days during RISS (FIG. 3M). […] Triple quadrupole mass spectrometry (QqQ MS) for absolute quantitative analysis of target lipids. Targeted analysis of LPC16:0, LPC18:0 and SM(d18:1/18:0) was measured by using an Agilent-1200 liquid chromatography system coupled to an Agilent-6410 QqQ MS with an ESI interface. […] Lipidomic profiling for relative quantitative analysis. Lipids were identified by comparing the LC/MS profiles of the metabolites of interest to that of a standard compound analyzed with identical conditions, and their relative abundance among samples was further evaluated. […] Collected data were processed with Progenesis QI (Waters) for lipid identification and relative quantitative analysis.

CCN(CC)CCN(Cc1ccc(-c2ccc(C(F)(F)F)cc2)cc1)C(=O)Cn1c(SCc2ccc(F)cc2)nc(=O)c2c1CCC2 [darapladib, N-[2-(diethylamino)ethyl]-2-{2-[(4-fluorobenzyl)sulfanyl]-4-oxo-4,5,6,7-tetrahydro-1H-cyclopenta[d]pyrimidin-1-yl}-N-{[4′-(trifluoromethyl)biphenyl-4-yl]methyl}acetamide]
development of RISS-induced chronic hypersensitivity (von Frey test) (RISS mice): prevented the development of chronic hypersensitivity | LPC16:0 production after RISS (serum level) (LPC16:0): significantly reduced
